Measurements reported in the CheMixHub viscosity set.
± gives the uncertainty stated by the source.

Test: xn = mol fraction of the nth substance listed

CCCC[n+]1ccccc1.[Cl][Al-]([Cl])([Cl])[Cl] + [Al+3].[Cl-].[Cl-].[Cl-]
viscosity [mPa·s], 101 kPa
Settings | 293.15 K | 298.15 K | 303.15 K | 308.15 K | 313.15 K | 318.15 K | 323.15 K
x2 = 0.46 | 29.8 ± 1.3 | 26.4 ± 1.1 | 22.8 ± 1 | 19.9 ± 0.9 | 17.6 ± 0.8 | 15.8 ± 0.7 | 13.8 ± 0.6
x2 = 0.57 | 29 ± 1.3 | 25.2 ± 1.1 | 22.1 ± 1 | 19.9 ± 0.9 | 17.6 ± 0.8 | 15.6 ± 0.7 | 14.2 ± 0.6

CCC(=O)O + CCCCO
308.15 K, 101 kPa
Settings | viscosity [mPa·s]
x1 = 0.0503 | 1.834 ± 0.067
x1 = 0.1016 | 1.791 ± 0.066
x1 = 0.1477 | 1.736 ± 0.064
x1 = 0.1995 | 1.695 ± 0.062
x1 = 0.301 | 1.556 ± 0.059
x1 = 0.4 | 1.482 ± 0.057
x1 = 0.5007 | 1.402 ± 0.055
x1 = 0.5993 | 1.312 ± 0.053
x1 = 0.7006 | 1.222 ± 0.052
x1 = 0.7995 | 1.12 ± 0.051
x1 = 0.9007 | 1.02 ± 0.051

CCC(=O)O + CO
308.15 K, 101 kPa
Settings | viscosity [mPa·s]
x1 = 0.0467 | 0.5336 ± 0.052
x1 = 0.0975 | 0.5843 ± 0.052
x1 = 0.157 | 0.6175 ± 0.052
x1 = 0.2234 | 0.6789 ± 0.052
x1 = 0.3021 | 0.7413 ± 0.052
x1 = 0.3923 | 0.8094 ± 0.052
x1 = 0.5024 | 0.9055 ± 0.052
x1 = 0.6344 | 0.9763 ± 0.052
x1 = 0.7111 | 1.021 ± 0.051
x1 = 0.7964 | 0.9955 ± 0.051
x1 = 0.8919 | 0.9369 ± 0.051

CNN + O
293.15 K, 101.3 kPa
Settings | viscosity [mPa·s]
x1 = 0.0514 | 1.53 ± 0.05
x1 = 0.1003 | 2.35 ± 0.07
x1 = 0.1615 | 3.54 ± 0.11
x1 = 0.2017 | 4.51 ± 0.14
x1 = 0.2563 | 5.58 ± 0.18
x1 = 0.303 | 6 ± 0.19
x1 = 0.3482 | 5.9 ± 0.19
x1 = 0.4048 | 5.5 ± 0.18
x1 = 0.4408 | 4.91 ± 0.16
x1 = 0.5008 | 4.07 ± 0.13
x1 = 0.6034 | 2.98 ± 0.09
x1 = 0.6873 | 2.16 ± 0.07
x1 = 0.8036 | 1.56 ± 0.05
x1 = 0.8917 | 1.22 ± 0.04

CCC(N)C(=O)[O-].[Na+] (stereo unspecified) + O
viscosity [mPa·s], 101.3 kPa
Settings | x1 = 0.009 | x1 = 0.018 | x1 = 0.029 | x1 = 0.039 | x1 = 0.05 | x1 = 0.062
303.15 K | 1.034 ± 0.066 | 1.36 ± 0.083 | 1.815 ± 0.11 | 2.492 ± 0.17 | 3.501 ± 0.23 | 4.954 ± 0.26
308.15 K | 0.924 ± 0.059 | 1.217 ± 0.072 | 1.595 ± 0.096 | 2.167 ± 0.14 | 3.005 ± 0.19 | 4.223 ± 0.23
313.15 K | 0.836 ± 0.052 | 1.093 ± 0.063 | 1.417 ± 0.083 | 1.91 ± 0.12 | 2.608 ± 0.16 | 3.646 ± 0.2
318.15 K | 0.76 ± 0.046 | 0.98 ± 0.055 | 1.27 ± 0.073 | 1.695 ± 0.1 | 2.295 ± 0.14 | 3.173 ± 0.17
323.15 K | 0.697 ± 0.042 | 0.9 ± 0.049 | 1.143 ± 0.063 | 1.516 ± 0.091 | 2.029 ± 0.12 | 2.777 ± 0.14

CCCOC(=O)CC + CCCCCCCCCC
298.15 K, 101.33 kPa
Settings | viscosity [mPa·s]
x2 = 0.0964 | 0.647 ± 0.007
x2 = 0.1323 | 0.65 ± 0.007
x2 = 0.1683 | 0.653 ± 0.007
x2 = 0.2534 | 0.661 ± 0.007
x2 = 0.3486 | 0.672 ± 0.007
x2 = 0.3989 | 0.68 ± 0.008
x2 = 0.5459 | 0.706 ± 0.008
x2 = 0.6381 | 0.728 ± 0.009
x2 = 0.7337 | 0.756 ± 0.009
x2 = 0.8679 | 0.802 ± 0.01
x2 = 0.9275 | 0.827 ± 0.011
